Measurements published in ChEMBL document CHEMBL3808333, “Design, synthesis and anticonvulsant activity of new hybrid compounds derived from N-phenyl-2-(2,5-dioxopyrrolidin-1-yl)-propanamides and -butanamides” (Bioorg Med Chem, 2016).
The source made the active and inactive calls. No cut-off for these calls is given here.

Tests used:
Mus musculus [1] = test: Anticonvulsant activity in albino Swiss mouse assessed as protection against maximal electroshock-induced seizures pretreated for 0.5 hrs at 100 mg/kg, ip by maximal electroshock seizure test; type: functional
Mus musculus [2] = test: Anticonvulsant activity in albino Swiss mouse assessed as reduction in clonic seizures pretreated for 0.5 hrs at 100 mg/kg, ip measured after 30 mins by subcutaneous pentylenetetrazole seizure test; type: functional; parameters: scale not given: the % may be the effect or the level left
Mus musculus [3] = test: Anticonvulsant activity in albino Swiss mouse assessed as reduction in clonic seizures pretreated for 2 hrs at 100 mg/kg, ip measured after 30 mins by subcutaneous pentylenetetrazole seizure test; type: functional, organism-based
Mus musculus [4] = test: Acute neurotoxicity in albino Swiss mouse pretreated for 0.5 hrs at 100 mg/kg, ip by rotorod test; type: toxicity, organism-based; conditions: in vivo
Mus musculus [5] = test: Acute neurotoxicity in albino Swiss mouse pretreated for 2 hrs at 100 mg/kg, ip by rotorod test; type: toxicity, organism-based; conditions: in vivo
Mus musculus [6] = test: Anticonvulsant activity in albino Swiss mouse assessed as protection against electrically-induced seizure pretreated for 0.5 hrs at 100 mg/kg, ip by 6Hz psychomotor seizure test; type: functional
Mus musculus [7] = test: Anticonvulsant activity against albino Swiss mouse seizure model assessed as time to peak effect at 100 mg/kg, ip; type: functional
Mus musculus [8] = species: Mus musculus; test: Anticonvulsant activity in albino Swiss mouse by maximal electroshock seizure test; type: functional
Mus musculus [9] = test: Anticonvulsant activity in albino Swiss mouse measured after 30 mins by subcutaneous pentylenetetrazole seizure test; type: functional; conditions: sc, 0.5 h
Mus musculus [10] = species: Mus musculus; test: Anticonvulsant activity in albino Swiss mouse assessed as protection against electrically-induced seizure by 6Hz psychomotor seizure test; type: functional
[11] = Acute neurotoxicity in albino Swiss mouse pretreated for 2 hrs by rotorod test; type: toxicity, organism-based; conditions: in vivo
[12] = Protective index, ratio of TD50 for acute neurotoxicity in albino Swiss mouse to ED50 for anticonvulsant activity in albino Swiss mouse by maximal electroshock seizure test; type: toxicity, organism-based; conditions: in vivo, read-out: Ratio TD50/ED50
[13] = Protective index, ratio of TD50 for acute neurotoxicity in albino Swiss mouse to ED50 for anticonvulsant activity in albino Swiss mouse by subcutaneous pentylenetetrazole seizure test; type: toxicity, organism-based; conditions: in vivo, read-out: Ratio TD50/ED50
[14] = Protective index, ratio of TD50 for acute neurotoxicity in albino Swiss mouse to ED50 for anticonvulsant activity in albino Swiss mouse by 6Hz psychomotor seizure test; type: toxicity, organism-based; conditions: in vivo, read-out: Ratio TD50/ED50
Mus musculus [15] = test: Anticonvulsant activity in albino Swiss mouse assessed as protection against maximal electroshock-induced seizures pretreated for 2 hrs at 100 mg/kg, ip by maximal electroshock seizure test; type: functional, organism-based
Mus musculus [16] = test: Anticonvulsant activity in albino Swiss mouse assessed as protection against electrically-induced seizure pretreated for 2 hrs at 100 mg/kg, ip by 6Hz psychomotor seizure test; type: functional, organism-based
Rattus norvegicus [17] = species: Rattus norvegicus; test: Displacement of [3H]Batrachotoxinin from voltage-sensitive sodium channel site 2 in rat cerebral cortex synaptoneurosomes at 500 uM measured after 60 mins by scintillation counting method; type: tissue-based
Rattus norvegicus [18] = species: Rattus norvegicus; test: Displacement of [125I]omega-Conotoxin GVIA from N-type calcium channel in rat cerebral cortex synaptoneurosomes at 100 uM measured after 30 mins by scintillation counting method; type: tissue-based
Rattus norvegicus [19] = species: Rattus norvegicus; test: Displacement of [125I]omega-Conotoxin GVIA from N-type calcium channel in rat cerebral cortex synaptoneurosomes at 200 uM measured after 30 mins by scintillation counting method; type: tissue-based
Rattus norvegicus [20] = species: Rattus norvegicus; test: Displacement of [3H]diltiazem from L-type calcium channel diltiazem binding site in rat cerebral cortex synaptoneurosomes at 100 uM measured after 120 mins by scintillation counting method; type: tissue-based
Rattus norvegicus [21] = species: Rattus norvegicus; test: Displacement of [3H]diltiazem from L-type calcium channel diltiazem binding site in rat cerebral cortex synaptoneurosomes at 200 uM measured after 120 mins by scintillation counting method; type: tissue-based
Rattus norvegicus [22] = species: Rattus norvegicus; test: Displacement of [3H]nitrendipine from L-type calcium channel dihydropyridine site in rat cerebral cortex synaptoneurosomes at 100 uM measured after 90 mins by scintillation counting method; type: tissue-based
Rattus norvegicus [23] = species: Rattus norvegicus; test: Displacement of [3H]nitrendipine from L-type calcium channel dihydropyridine site in rat cerebral cortex synaptoneurosomes at 200 uM measured after 90 mins by scintillation counting method; type: tissue-based
Rattus norvegicus [24] = species: Rattus norvegicus; test: Displacement of [3H]D888 from L-type calcium channel verapamil binding site in rat cerebral cortex synaptoneurosomes at 100 uM measured after 120 mins by scintillation counting method; type: tissue-based
Rattus norvegicus [25] = species: Rattus norvegicus; test: Displacement of [3H]D888 from L-type calcium channel verapamil binding site in rat cerebral cortex synaptoneurosomes at 200 uM measured after 120 mins by scintillation counting method; type: tissue-based
Rattus norvegicus [26] = species: Rattus norvegicus; test: Displacement of [3H]Batrachotoxinin from voltage-sensitive sodium channel site 2 in rat cerebral cortex synaptoneurosomes at 100 uM measured after 60 mins by scintillation counting method; type: tissue-based
Rattus norvegicus [27] = species: Rattus norvegicus; test: Displacement of [3H]Batrachotoxinin from voltage-sensitive sodium channel site 2 in rat cerebral cortex synaptoneurosomes at 200 uM measured after 60 mins by scintillation counting method; type: tissue-based

CC1CC(=O)N(C(C)C(=O)Nc2cccc(Cl)c2)C1=O (stereo not given)
Activity (Mus musculus [1]): 75% | Activity (Mus musculus [2]): 75% | Activity (Mus musculus [3]): inactive | Activity (Mus musculus [4]): Non-toxic | Activity (Mus musculus [5]): Non-toxic | Activity (Mus musculus [6]): 75% | Time (Mus musculus [7]): 0.5 h | ED50 (Mus musculus [8]): 80.6 mg/kg | ED50 (Mus musculus [9]): 58.4 mg/kg | ED50 (Mus musculus [10]): 88.2 mg/kg | TD50 at 2 h [11]: 279 mg/kg | selectivity ratio [12]: 3.5 | selectivity ratio [13]: 4.8 | selectivity ratio [14]: 3.2

CC1CC(=O)N(C(C)C(=O)Nc2ccc(F)cc2)C1=O (stereo not given)
Activity (Mus musculus [1]): inactive | Activity (Mus musculus [15]): inactive

CCC(C(=O)Nc1cccc(C(F)(F)F)c1)N1C(=O)CCC1=O (stereo not given)
Activity (Mus musculus [1]): inactive | Activity (Mus musculus [15]): inactive

CC(C(=O)Nc1ccc(C(F)(F)F)cc1)N1C(=O)CCC1=O (stereo not given)
Activity (Mus musculus [15]): inactive

CCCC(CCC)C(=O)O [VALPROIC ACID]
Time (Mus musculus [7]): 0.5 h

CC(C(=O)Nc1cccc(F)c1)N1C(=O)CCC1=O (stereo not given)
Activity (Mus musculus [15]): inactive

CCC(C(=O)Nc1ccc(F)cc1)N1C(=O)CCC1=O (stereo not given)
Activity (Mus musculus [1]): inactive | Activity (Mus musculus [15]): inactive

CCC(C(=O)Nc1ccc(C(F)(F)F)cc1)N1C(=O)CCC1=O (stereo not given)
Activity (Mus musculus [1]): inactive | Activity (Mus musculus [15]): inactive

COC[C@@H](NC(C)=O)C(=O)NCc1ccccc1 [LACOSAMIDE]
Time (Mus musculus [7]): 0.5 h | ED50 (Mus musculus [8]): 9.4 mg/kg | ED50 (Mus musculus [9]): > 500 mg/kg | ED50 (Mus musculus [10]): 6.4 mg/kg | selectivity ratio [14]: 5.3

CC1CC(=O)N(C(C)C(=O)Nc2ccc(Cl)cc2)C1=O (stereo not given)
Activity (Mus musculus [15]): inactive

CCC(C(=O)Nc1ccccc1)N1C(=O)CCC1=O (stereo not given)
Activity (Mus musculus [1]): 75% | Activity (Mus musculus [2]): 75% | Activity (Mus musculus [3]): inactive | Activity (Mus musculus [4]): Non-toxic | Activity (Mus musculus [5]): Non-toxic | Activity (Mus musculus [6]): Active | Activity (Mus musculus [16]): inactive | Time (Mus musculus [7]): 0.5 h | ED50 (Mus musculus [8]): 116 mg/kg | ED50 (Mus musculus [9]): 75.4 mg/kg | ED50 (Mus musculus [10]): 69.3 mg/kg | TD50 at 2 h [11]: 398 mg/kg | selectivity ratio [12]: 3.4 | selectivity ratio [13]: 5.3 | selectivity ratio [14]: 5.7

NC(=O)N1c2ccccc2C=Cc2ccccc21
inhibition (Rattus norvegicus [17]): 33.6% | inhibition (Rattus norvegicus [18]): -2.9% | inhibition (Rattus norvegicus [19]): 1.9% | inhibition (Rattus norvegicus [20]): 1.1% | inhibition (Rattus norvegicus [21]): 7.3% | inhibition (Rattus norvegicus [22]): 2.6% | inhibition (Rattus norvegicus [23]): 3.6% | inhibition (Rattus norvegicus [24]): 8.8% | inhibition (Rattus norvegicus [25]): 7.5%

CC1CC(=O)N(C(C)C(=O)Nc2ccc(C(F)(F)F)cc2)C1=O (stereo not given)
Activity (Mus musculus [1]): inactive | Activity (Mus musculus [15]): inactive

CCC1(C)CC(=O)NC1=O (stereo not given) [ETHOSUXIMIDE]
Time (Mus musculus [7]): 0.5 h | ED50 (Mus musculus [8]): > 500 mg/kg | ED50 (Mus musculus [9]): 148 mg/kg | ED50 (Mus musculus [10]): > 200 mg/kg | selectivity ratio [13]: 4.9

CC[C@@H](C(N)=O)N1CCCC1=O
Time (Mus musculus [7]): 1 h | ED50 (Mus musculus [8]): > 500 mg/kg | ED50 (Mus musculus [9]): > 500 mg/kg | TD50 at 2 h [11]: > 500 mg/kg

CC(C(=O)Nc1ccccc1)N1C(=O)CCC1=O (racemic)
Activity (Mus musculus [1]): 50% | Activity (Mus musculus [2]): Active | Activity (Mus musculus [3]): inactive | Activity (Mus musculus [6]): Active | Time (Mus musculus [7]): 0.5 h | ED50 (Mus musculus [8]): 96.9 mg/kg | ED50 (Mus musculus [9]): 75.4 mg/kg | ED50 (Mus musculus [10]): 44.3 mg/kg | TD50 at 2 h [11]: 336 mg/kg | selectivity ratio [12]: 3.5 | selectivity ratio [13]: 4.4 | selectivity ratio [14]: 7.6 | inhibition (Rattus norvegicus [26]): 26.4% | inhibition (Rattus norvegicus [27]): 55.2% | inhibition (Rattus norvegicus [18]): -6.5% | inhibition (Rattus norvegicus [19]): 1.3% | inhibition (Rattus norvegicus [20]): 10.8% | inhibition (Rattus norvegicus [21]): 43.7% | inhibition (Rattus norvegicus [22]): -7.7% | inhibition (Rattus norvegicus [23]): 2.9% | inhibition (Rattus norvegicus [24]): -0.8% | inhibition (Rattus norvegicus [25]): -3.2%

CC1CC(=O)N(C(C)C(=O)Nc2ccccc2)C1=O (stereo not given)
Activity (Mus musculus [15]): inactive

CC1CC(=O)N(C(C)C(=O)Nc2cccc(C(F)(F)F)c2)C1=O (stereo not given)
Activity (Mus musculus [1]): inactive | Activity (Mus musculus [15]): inactive

CCC(C(=O)Nc1cccc(Cl)c1)N1C(=O)CCC1=O (stereo not given)
Activity (Mus musculus [1]): 75% | Activity (Mus musculus [15]): inactive | Activity (Mus musculus [2]): 50% | Activity (Mus musculus [5]): Non-toxic | Activity (Mus musculus [6]): 75% | Activity (Mus musculus [16]): inactive | Time (Mus musculus [7]): 0.5 h | ED50 (Mus musculus [8]): > 130 mg/kg | ED50 (Mus musculus [9]): > 130 mg/kg | ED50 (Mus musculus [10]): 43.4 mg/kg | TD50 at 2 h [11]: > 500 mg/kg | selectivity ratio [14]: > 11.5

CC(C(=O)Nc1ccc(F)cc1)N1C(=O)CCC1=O (stereo not given)
Activity (Mus musculus [1]): inactive | Activity (Mus musculus [15]): inactive

CCC(C(=O)Nc1ccc(Cl)cc1)N1C(=O)CCC1=O (stereo not given)
Activity (Mus musculus [1]): inactive | Activity (Mus musculus [15]): inactive

CCC(C(=O)Nc1cccc(F)c1)N1C(=O)CCC1=O (stereo not given)
Activity (Mus musculus [1]): 75% | Activity (Mus musculus [15]): inactive | Activity (Mus musculus [5]): Non-toxic | Activity (Mus musculus [6]): Active | Activity (Mus musculus [16]): inactive | Time (Mus musculus [7]): 0.5 h | ED50 (Mus musculus [8]): 121 mg/kg | ED50 (Mus musculus [10]): 41.4 mg/kg | TD50 at 2 h [11]: 346 mg/kg | selectivity ratio [12]: 2.9 | selectivity ratio [14]: 8.4

CC(C(=O)Nc1ccc(Cl)cc1)N1C(=O)CCC1=O (stereo not given)
Activity (Mus musculus [1]): inactive

CC1CC(=O)N(C(C)C(=O)Nc2cccc(F)c2)C1=O (stereo not given)
Activity (Mus musculus [15]): inactive

CC(C(=O)Nc1cccc(C(F)(F)F)c1)N1C(=O)CCC1=O (stereo not given)
Activity (Mus musculus [1]): inactive

CC(C(=O)Nc1cccc(Cl)c1)N1C(=O)CCC1=O (stereo not given)
Activity (Mus musculus [1]): 75% | Activity (Mus musculus [15]): inactive | Activity (Mus musculus [2]): 75% | Activity (Mus musculus [4]): 50% | Activity (Mus musculus [6]): 75% | Activity (Mus musculus [16]): inactive | Time (Mus musculus [7]): 0.5 h | ED50 (Mus musculus [8]): 105 mg/kg | ED50 (Mus musculus [9]): 87.7 mg/kg | ED50 (Mus musculus [10]): 74.5 mg/kg | TD50 at 2 h [11]: > 500 mg/kg | selectivity ratio [12]: > 4.8 | selectivity ratio [13]: > 5.7 | selectivity ratio [14]: > 6.7
